What is called Ki is the dissociation constant of the complex between target and ligand, obtained from inhibition or displacement. The term melting point denotes the temperature, or range, at which the solid turns liquid.

The target of one data set is human CB2R (Homo sapiens, UniProt P34972). Briefly: In vitro CB receptor affinity assay, displacement of [3H]CP55,940, CHO cells transfected with human CB2R. Type of data set: binding. The procedure: (§1) For binding experiments, Chinese hamster ovary (CHO) cell lines stably transfected with human CB1R human and CB2R were used according to the procedures previously described. […] The binding experiments were performed in triplicates, and data were given as mean values from independent experiments.
Sequence of human CB2R (P34972 whole entry): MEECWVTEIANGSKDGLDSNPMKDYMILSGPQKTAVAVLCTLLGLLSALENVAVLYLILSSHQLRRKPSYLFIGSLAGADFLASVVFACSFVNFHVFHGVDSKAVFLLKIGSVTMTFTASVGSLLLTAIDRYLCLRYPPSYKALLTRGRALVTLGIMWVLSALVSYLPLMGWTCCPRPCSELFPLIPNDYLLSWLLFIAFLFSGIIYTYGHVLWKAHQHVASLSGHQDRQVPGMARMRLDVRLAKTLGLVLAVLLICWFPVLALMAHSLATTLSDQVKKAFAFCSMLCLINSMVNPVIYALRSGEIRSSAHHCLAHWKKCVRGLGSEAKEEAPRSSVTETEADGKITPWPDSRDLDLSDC
(In general: In a radioligand displacement assay an active substance lowers the binding of a labelled ligand.)

The next data set addresses human CB1R (Homo sapiens, UniProt P21554). As to the kind of experiment: In vitro CB receptor affinity assay, displacement of [3H]CP55,940, CHO cells transfected with human CB1R. Type of data set: binding. The procedure: as §1
Data set [1] is described as follows: HPLC-based logD determination. The data set is classed as physicochemical. To be noted: RP-HPLC, reference compounds. The method, then:
The distribution coefficients of [^18F]1 and [^18F]2 were also calculated from RP-HPLC retention times in three different systems: (1) isocratic elution (60% MeCN/20 mM NH4OAc at a flow rate of 1 mL/min) and (2) gradient elution (starting from 10% MeCN/20 mM NH4OAc aq. for 10 min with a gradient to 90% MeCN/20 mM NH4OAc aq. over 30 min at a flow rate of 1 mL/min) on a Reprosil-Pur C18-AQ column (5 μm, 250 × 4.6 mm, Dr. Maisch HPLC GmbH, Ammerbruch-Entringen, Germany), and (3) isocratic elution (52.5% MeCN/20 mM NH4OAc at a flow rate of 1 mL/min) on a Prodigy 5 μm C8 (250 × 4 mm; Phenomenex Ltd, Aschaffenburg, Germany) using the reference compounds following the protocol according to the EU guideline 67/548/EWG [44].

Where [2] appears, read: [3H]CP55,940 displacement, hCB1R CHO cells, read-out: Ki CB1R.

Like-named read-outs stand apart in the source and are kept apart here.

Sequence of human CB1R (P21554 whole entry): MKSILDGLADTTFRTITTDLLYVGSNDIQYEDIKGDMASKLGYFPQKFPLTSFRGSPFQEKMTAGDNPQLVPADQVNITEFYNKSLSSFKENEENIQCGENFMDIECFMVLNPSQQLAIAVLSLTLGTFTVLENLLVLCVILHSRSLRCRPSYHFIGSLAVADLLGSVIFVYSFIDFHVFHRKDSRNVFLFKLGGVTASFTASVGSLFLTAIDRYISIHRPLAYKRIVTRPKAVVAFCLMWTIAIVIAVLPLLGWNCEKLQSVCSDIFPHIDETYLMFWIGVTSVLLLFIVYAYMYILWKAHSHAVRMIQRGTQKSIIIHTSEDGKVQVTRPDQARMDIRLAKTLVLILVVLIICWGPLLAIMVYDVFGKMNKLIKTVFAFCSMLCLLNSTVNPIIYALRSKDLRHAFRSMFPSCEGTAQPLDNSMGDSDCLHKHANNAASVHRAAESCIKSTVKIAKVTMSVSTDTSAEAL

Consider `O=C(CCc1nc(-c2ccc(F)cc2Br)no1)Nc1ccc2c(c1)c1ccccc1n2CCF` [Compound 1, 3-[3-(2-Bromo-4-fluorophenyl)-1,2,4-oxadiazol-5-yl]-N-[9-(2-fluoroethyl)-9H-carbazol-3-yl]propanamide], for which the values for the Ki at human CB2R and at human CB1R were 2.32 ± 2.12 nM and more than 1000 nM, respectively. Besides, the chromatographic logD amounted to 3.86 ± 0.33 in data set [1] (Prodigy 5 μm C8 column, isocratic 52.5% MeCN/20 mM NH4OAc, n = 3 to 6, read-out: logD Prodigy 5 μ C8 Isocratic); 3.82 ± 0.1 in data set [1] (Reprosil-Pur C18-AQ column, gradient 10% to 90% MeCN/20 mM NH4OAc, n = 3 to 6, read-out: logD Reposil-Pur C18-AQ Gradient); 4.21 ± 0.32 in data set [1] (Reprosil-Pur C18-AQ column, isocratic 60% MeCN/20 mM NH4OAc, n = 3 to 6, read-out: logD Reposil-Pur C18-AQ Isocratic).

Take `O=C(O)CCc1nc(-c2ccc(F)cc2Br)no1` [Compound 10, 3-(3-(2-Bromo-4-fluorophenyl)-1,2,4-oxadiazol-5-yl)propanoic acid]: the melting point turned out to be 104 °C. The Ki on human CB2R ([3H]CP55,940 displacement, hCB2R CHO cells, read-out: Ki CB2R) was more than 1000 nM. Further, the Ki at human CB1R (setting [2]) is more than 1000 nM.

Take `CCn1c2ccccc2c2cc(NC(=O)CCc3nc(-c4ccc(F)cc4Br)no3)ccc21` [Compound 2, 3-[3-(2-Bromo-4-fluorophenyl)-1,2,4-oxadiazol-5-yl]-N-(9-ethyl-9H-carbazol-3-yl)propanamide]: the Ki is 4.27 ± 3.03 nM at human CB2R and more than 1000 nM at human CB1R (setting [2]). Also, the chromatographic logD in data set [1] (gradient 10% to 90% MeCN/20 mM NH4OAc, n = 3 to 6, read-out: logD Reposil-Pur C18-AQ Gradient) is 4.35 ± 0.11; in data set [1] (isocratic 52.5% MeCN/20 mM NH4OAc, n = 3 to 6, read-out: logD Prodigy 5 μ C8 Isocratic) it was 4.4 ± 0.35; in data set [1] (isocratic 60% MeCN/20 mM NH4OAc, n = 3 to 6, read-out: logD Reposil-Pur C18-AQ Isocratic), 4.87 ± 0.36.

Values taken from article PMC3856494, “Radiofluorination and biological evaluation of N-aryl-oxadiazolyl-propionamides as potential radioligands for PET imaging of cannabinoid CB2 receptors” (Organic and Medicinal Chemistry Letters, 2013).
